From paper PMC10455806, “New Sorbicillinoids from the Mangrove Endophytic Fungus Trichoderma reesei SCNU-F0042” (Marine Drugs, 2023)
pIC50: −log10 of the molar value. Where two headings read alike, the source gives them in different places.

Tests used:
Type in all cases: cell-based
SARS-CoV-2 (BA.2) = experiment: microbe, parasite or virus in culture; details: for EC50: 48 h, mean from three parallel experiments, read-out: Inhibition of SARS-CoV-2 Viruses (EC50/μM)
[1] = Cell viability assay (MTT method); details: human; for IC50: 293T cell, MTT, mean from three parallel experiments, read-out: Cytotoxicity for 293T Cell (IC50/μM)
Description: (§1) […] Tested cell lines were cultured in Dulbecco’s modified Eagle’s medium (DMEM) (Invitrogen, Carlsbad, CA, USA) supplemented with 5% fetal bovine serum (Hyclone, Logan, UT, USA), 2 mM L-glutamine, […] streptomycin, and 100 units/mL penicillin (Invitrogen). The cultures were maintained at 37 °C in a humidified atmosphere of 5% CO2.

HEK 293T-hACE2 cells = experiment: Cell viability assay (MTT method); details: at 80 μM, 293T cells
Description: as §1

[2] = Severe acute respiratory syndrome coronavirus 2, HEK-293T, […]

Structure (SMILES)	antiviral activity against SARS-CoV-2 (SARS-CoV-2 (BA.2))	EC50 (SARS-CoV-2 (BA.2); [2])	IC50 [1]	cytotoxicity (HEK 293T-hACE2 cells)	pIC50 (SARS-CoV-2 (BA.2); Severe acute respiratory syndrome coronavirus 2, HEK-293T, […], read-out: IC50 (positive control, SARS-CoV-2 assay))	pIC50 [1]
CC=CC=CC(=O)C1C(C2(C)OC(=O)C(C)=C2O)C2C(=C(O)C=CC=CCO)C(=O)C1(C)C(=O)C2(C)O (stereo not drawn) [Compound 1, 14-hydroxybislongiquinolide]	no activity	> 80 µM	> 80 µM	–	–	–
CC=CC=CC(O)=C1C(=O)C2(C)C(=O)C(C)(O)C1C(C1(C)OC(=O)C(C)=C1O)C2C(=O)C=CC=CCO (stereo not drawn) [Compound 2, 20-hydroxybislongiquinolide]	–	29 µM	> 80 µM	without cytotoxicity	–	–
CC(=O)Oc1cc(/C=C/C=C/C(=O)O)oc(=O)c1C [Compound 5, Acetylchrysopyrone B]	no activity	> 80 µM	> 80 µM	–	–	–
CCC(CC)COC(=O)[C@H](C)N[P@](=O)(OC[C@H]1O[C@@](C#N)(c2ccc3c(N)ncnn23)[C@H](O)[C@@H]1O)Oc1ccccc1 [Remdesivir, reference compound]	–	1.2 µM	–	–	5.92	< 4.10
CC1=C(O)C(C)(C2C3C(=C(O)C=CC=CCO)C(=O)C(C)(C(=O)C3(C)O)C2C(=O)C=CC=CCO)OC1=O (stereo not drawn) [Compound 3, 14, 20-dihydroxybislongiquinolide]	no activity	> 80 µM	> 80 µM	–	–	–
